Test results published in the NIST ThermoML archive (doi:10.1021/je900648p).
Numbers after ± are expanded uncertainties.

How the values were obtained:
[1] = molar heat capacity at constant pressure; conditions: 101.33 kPa, Liquid, Small sample (50 mg) DSC
[2] = 101.33 kPa, Liquid, Hot wire method

## CCCCn1cc[n+](C)c1.F[B-](F)(F)F [1-butyl-3-methylimidazolium tetrafluoroborate]
[1]; 308.16 K
  molar heat capacity at constant pressure: 367.26 ± 7.3 J/K/mol
[1]; 313.16 K
  molar heat capacity at constant pressure: 367.64 ± 7.3 J/K/mol
[1]; 318.16 K
  molar heat capacity at constant pressure: 370.39 ± 7.4 J/K/mol
[1]; 323.16 K
  molar heat capacity at constant pressure: 371.89 ± 7.4 J/K/mol
[1]; 328.22 K
  molar heat capacity at constant pressure: 373.73 ± 7.5 J/K/mol
[1]; 333.22 K
  molar heat capacity at constant pressure: 375.92 ± 7.5 J/K/mol
[1]; 338.19 K
  molar heat capacity at constant pressure: 377.15 ± 7.5 J/K/mol
[1]; 343.18 K
  molar heat capacity at constant pressure: 380.16 ± 7.6 J/K/mol
[1]; 348.25 K
  molar heat capacity at constant pressure: 382.69 ± 7.7 J/K/mol
[1]; 353.18 K
  molar heat capacity at constant pressure: 384.8 ± 7.7 J/K/mol
[1]; 358.25 K
  molar heat capacity at constant pressure: 386.99 ± 7.7 J/K/mol
[1]; 363.18 K
  molar heat capacity at constant pressure: 389.18 ± 7.8 J/K/mol
[1]; 368.17 K
  molar heat capacity at constant pressure: 390 ± 7.8 J/K/mol
[1]; 373.21 K
  molar heat capacity at constant pressure: 390.04 ± 7.8 J/K/mol
[1]; 378.2 K
  molar heat capacity at constant pressure: 392.18 ± 7.8 J/K/mol
[1]; 383.17 K
  molar heat capacity at constant pressure: 393.64 ± 7.9 J/K/mol
[1]; 388.2 K
  molar heat capacity at constant pressure: 395.28 ± 7.9 J/K/mol
[1]; 393.17 K
  molar heat capacity at constant pressure: 396.49 ± 7.9 J/K/mol
[1]; 398.2 K
  molar heat capacity at constant pressure: 397.93 ± 8 J/K/mol
[1]; 403.2 K
  molar heat capacity at constant pressure: 400.74 ± 8 J/K/mol
[1]; 408.16 K
  molar heat capacity at constant pressure: 403.88 ± 8.1 J/K/mol
[1]; 413.19 K
  molar heat capacity at constant pressure: 403.49 ± 8.1 J/K/mol
[1]; 418.19 K
  molar heat capacity at constant pressure: 404.98 ± 8.1 J/K/mol
[1]; 423.22 K
  molar heat capacity at constant pressure: 406.62 ± 8.1 J/K/mol

## CCCCCCn1cc[n+](C)c1.F[B-](F)(F)F [1-hexyl-3-methylimidazolium tetrafluoroborate]
[2]; 293 K
  thermal conductivity: 0.158 ± 0.01 W/m/K
[2]; 303 K
  thermal conductivity: 0.157 ± 0.01 W/m/K
[2]; 313 K
  thermal conductivity: 0.156 ± 0.01 W/m/K
[2]; 323 K
  thermal conductivity: 0.155 ± 0.01 W/m/K
[2]; 333 K
  thermal conductivity: 0.153 ± 0.01 W/m/K
[2]; 343 K
  thermal conductivity: 0.152 ± 0.01 W/m/K
[2]; 353 K
  thermal conductivity: 0.151 ± 0.01 W/m/K

## CCCCn1cc[n+](C)c1.F[P-](F)(F)(F)(F)F [1-butyl-3-methylimidazolium hexafluorophosphate]
[1]; 308.16 K
  molar heat capacity at constant pressure: 410.64 ± 8.2 J/K/mol
[1]; 313.16 K
  molar heat capacity at constant pressure: 413.48 ± 8.3 J/K/mol
[1]; 318.16 K
  molar heat capacity at constant pressure: 417.74 ± 8.3 J/K/mol
[1]; 323.16 K
  molar heat capacity at constant pressure: 422.01 ± 8.4 J/K/mol
[1]; 328.22 K
  molar heat capacity at constant pressure: 423.43 ± 8.5 J/K/mol
[1]; 333.22 K
  molar heat capacity at constant pressure: 426.27 ± 8.5 J/K/mol
[1]; 338.19 K
  molar heat capacity at constant pressure: 429.11 ± 8.6 J/K/mol
[1]; 343.18 K
  molar heat capacity at constant pressure: 433.37 ± 8.7 J/K/mol
[1]; 348.25 K
  molar heat capacity at constant pressure: 436.22 ± 8.7 J/K/mol
[1]; 353.18 K
  molar heat capacity at constant pressure: 439.06 ± 8.8 J/K/mol
[1]; 358.25 K
  molar heat capacity at constant pressure: 441.9 ± 8.8 J/K/mol
[1]; 363.18 K
  molar heat capacity at constant pressure: 443.32 ± 8.9 J/K/mol
[1]; 368.17 K
  molar heat capacity at constant pressure: 444.74 ± 8.9 J/K/mol
[1]; 373.21 K
  molar heat capacity at constant pressure: 447.58 ± 8.9 J/K/mol
[1]; 378.2 K
  molar heat capacity at constant pressure: 450.43 ± 9 J/K/mol
[1]; 383.17 K
  molar heat capacity at constant pressure: 454.69 ± 9.1 J/K/mol
[1]; 388.2 K
  molar heat capacity at constant pressure: 457.53 ± 9.2 J/K/mol
[1]; 393.17 K
  molar heat capacity at constant pressure: 460.37 ± 9.2 J/K/mol
[1]; 398.2 K
  molar heat capacity at constant pressure: 463.21 ± 9.3 J/K/mol
[1]; 403.2 K
  molar heat capacity at constant pressure: 468.9 ± 9.4 J/K/mol
[1]; 408.16 K
  molar heat capacity at constant pressure: 470.32 ± 9.4 J/K/mol
[1]; 413.19 K
  molar heat capacity at constant pressure: 471.74 ± 9.4 J/K/mol
[1]; 418.19 K
  molar heat capacity at constant pressure: 473.16 ± 9.5 J/K/mol
[1]; 423.22 K
  molar heat capacity at constant pressure: 474.58 ± 9.5 J/K/mol
[2]; 293 K
  thermal conductivity: 0.145 ± 0.01 W/m/K
[2]; 303 K
  thermal conductivity: 0.145 ± 0.01 W/m/K
[2]; 313 K
  thermal conductivity: 0.145 ± 0.01 W/m/K
[2]; 323 K
  thermal conductivity: 0.144 ± 0.01 W/m/K
[2]; 333 K
  thermal conductivity: 0.143 ± 0.01 W/m/K
[2]; 343 K
  thermal conductivity: 0.143 ± 0.01 W/m/K
[2]; 353 K
  thermal conductivity: 0.143 ± 0.01 W/m/K

## CCCC[N+]1(C)CCCC1.O=S(=O)([N-]S(=O)(=O)C(F)(F)F)C(F)(F)F
[2]; 293 K
  thermal conductivity: 0.118 ± 0.01 W/m/K
[2]; 303 K
  thermal conductivity: 0.118 ± 0.01 W/m/K
[2]; 313 K
  thermal conductivity: 0.118 ± 0.01 W/m/K
[2]; 323 K
  thermal conductivity: 0.117 ± 0.01 W/m/K
[2]; 333 K
  thermal conductivity: 0.117 ± 0.01 W/m/K
